Columns and labels:
ATF4 = ATF4 expression inhibition assay (thapsigargin-stressed HEK293T cells, western blot); assay type: cell-based; conditions: Homo sapiens, HEK-293T
Outline: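 HEK293T cells treated with thapsigargin (Tg) plus test compound (100 nM or 1 μM) for 3 hours, then lysed; ATF4 measured by western blot with ECL and densitometry. % inhibition normalized to Tg alone (0%) and untreated cells (100%); IC50 also calculated.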

[1] = tested on: 19-month old male C57Bl/6J mice; assay: Learning memory in aged mice (8-arm radial water maze, hippocampal ATF4); assay type: in vivo, mouse; conditions: 5 mg/kg intraperitoneally, versus vehicle
Description: Wild type 19-month old male C57Bl/6J mice were used in an 8-arm radial water maze (RAWM) to measure the hippocampal-mediated learning memory. The maze involved a pool 118.5 cm in diameter and 25 cm high with 8 arms, each 41 cm in length, and an escape platform that could be moved. The pool was filled with water that was rendered opaque by adding white paint (Crayola, 54-2128-053). The escape platform remains hidden during the experiment. Visual cues were placed around the room such that they were visible to animals exploring the maze. […]
Behavioral tests were recorded and scored using a video tracking and analysis setup (Ethovision XT 8.5, Noldus Information Technology). The program automatically analyzed the number of incorrect arm entries (termed number of errors) made per trial. […]
At the end of the behavioral test, animals were sacrificed and the hippocampi were extracted and immediately frozen in liquid nitrogen and then stored at −80° C. […] Protein concentration in supernatants was determined using BCA Protein Assay Kit (Pierce). […]
ATF4 (11815) antibody (Cell Signaling Technologies) and β-actin (Sigma-Aldrich) antibodies were used as primary antibodies. […] Quantification of protein bands was done by densitometry using ImageJ software.

C57Bl/6J mice with TBI = assay: Learning memory, long-term memory and social behavior after traumatic brain injury (TBI); assay type: in vivo, mouse
Description: Wild type three-month-old male C57Bl/6J mice were randomly assigned to TBI or sham surgeries. Animals were anesthetized and maintained at 2% isoflurane and secured to a stereotaxic frame with nontraumatic ear bars. The hair on their scalp was removed, and eye ointment and betadine were applied to their eyes and scalp, respectively. A midline incision was made to expose the skull. A unilateral TBI was induced in the right parietal lobe using the controlled cortical impact model (Nat Neurosci. 2014 August; 17(8): 1073-82). Mice received a 3.5-mm diameter craniectomy, a removal of part of the skull, using an electric microdrill. The coordinates of the craniectomy were: anteroposterior, −2.00 mm and mediolateral, +2.00 mm with respect to bregma. After the craniectomy, the contusion was induced using a 3-mm convex tip attached to an electromagnetic impactor (Leica). The contusion depth was set to 0.95 mm from dura with a velocity of 4.0 m/s sustained for 300 ms. These injury parameters were chosen to target, but not penetrate, the hippocampus. Sham animals received craniectomy surgeries but without the focal injury. After focal TBI surgery, the scalp was sutured and the animal was allowed to recover in an incubation chamber set to 37° C. Animals were returned to their home cage after showing normal walking and grooming behavior.
After 28 days post injury (dpi), animals were tested on the RAWM assay (see above). Animals ran 12 trials during learning test and 4 trials during memory test. Last three trials from learning test and all four trials from memory test were averaged to determine learning memory (learning test) and long-term memory (memory test). […]
To quantitate social tendencies of the treated mice, the time spent with a novel conspecific mouse was measured in a Crawley's three-chamber box (J Vis Exp. 2011; (48): 2473). […] The time spent with the never-before-met animal was recorded. Direct contact between the treated mouse and the housing cage or stretching of the body of the subject mouse in an area 3-5 cm around the housing cage is counted as an active contact.

Q: How did the IC50 (ATF4; 3 h with 100 nM Tg, test compound 1 nM to 1 μM) turn out when O=C(COc1ccc(Cl)cc1)N[C@H]1CC[C@H](NC[C@@H](O)COc2ccc(Cl)cc2)CC1 (single isomer, unassigned) [Compound 3, (+)-2-(4-chlorophenoxy)-N-(4-((3-(4-chlorophenoxy)-2-hydroxypropyl)amino)cyclohexyl)acetamide] was run?
A: Its IC50 is 145 nM.

Q: What about the inhibition at 0.1 µM (ATF4; 3 h with 100 nM thapsigargin (Tg) and 100 nM test compound, Tg alone 0%, untreated 100%) of the same molecule?
A: Its inhibition at 0.1 µM is 35%.

Q: And the inhibition at 1 µM (ATF4; 3 h with 100 nM thapsigargin (Tg) and 1 μM test compound, Tg alone 0%, untreated 100%)?
A: Its inhibition at 1 µM is 77%.

Q: What about the “ATF4 expression normalized to β-actin in hippocampi” value [1] of the same molecule?
A: Its value is “lower levels of ATF4 expression compared with vehicle-treated animals”.

Q: And the “RAWM task performance (learning memory)” value [1]?
A: Its value is “performed better than vehicle-treated animals”.

Q: And the “learning memory, number of errors in RAWM” value (C57Bl/6J mice with TBI; 5 mg/kg intraperitoneally, 28-29 dpi, versus vehicle)?
A: The value was “made significantly less errors over the course of training”.

Q: And the “long-term memory, RAWM” value (C57Bl/6J mice with TBI; 35 dpi, 7 days after training, versus vehicle)?
A: The value was “a similar trend was seen”.

Q: What about the “social behavior, time spent with the novel mouse” value (C57Bl/6J mice with TBI; 42 dpi, Crawley's three-chamber box) of the same molecule?
A: The value was “spent more time with the novel mouse at levels similar to those animals from sham group”.

Source: patent US11230542B2, “Inhibitors of integrated stress response pathway” (Praxis Biotech LLC, priority 2017, dated 2022)
